From US7405037B2, “Methods and tools for detecting collagen degradation” (Lonza Walkersville, Inc., priority 2004, dated 2008) come the findings set out here.

Assay [1] concerns primary human osteoclasts. Briefly: OsteoLyse assay: release of europium chelate-labeled collagen fragments by osteoclasts. Type of assay: cell-based. Also noted: inhibition of bone matrix degradation: dose or concentration left out as unconfirmed. As for the experimental part:
Remove a 96-well cell culture plate to which europium chelate-labeled collagen (e.g., collagen labeled with Eu^3+-N′-(p-isothiocyanatobenzyl) diethylenetriamine-N^1,N^2,N^3-tetraacetic acid) is covalently bound from 4° C. storage and let it warm to room temperature. Seed mature osteoclasts or osteoclast precursors (human or non-human) onto the cell culture plate in medium containing M-CSF and soluble RANK ligand. If using Cambrex's primary human osteoclast precursors (Poietics™ Human Osteoclast Precursors), seed the cells at a density of 10,000 cells/well in osteoclast precursor differentiation medium (Cambrex product # PT-8001). See Example 2 for a detailed protocol for the culture of primary human osteoclast precursors (Cambrex product # 2T-110). Precursors cultured in the absence of soluble RANK ligand can serve as “undifferentiated” controls.
Culture the cells for 6 days and then renew the cell culture medium. Fresh medium preferably contains the same concentrations of M-CSF and soluble RANK ligand as in the original day 0 medium. Unused control and differentiation media from day 0 can be frozen (on day 0) and used for the day 6 medium changes.
At least two different types of protocols can be used. If the assay is used to measure the effect of a test compound on differentiation of the osteoclast precursor, the test compound typically is added at day 0 and removed at day 6. However, if the assay is used to measure the effect of a test compound on mature osteoclast function (i.e., bone matrix collagen degradation), the test compound typically is added at day 6 with the new medium addition.
The cell culture medium can be sampled at any time after the medium change. Because a very small volume (5 to 10 μl) of medium is sampled, it is very easy to do time-course studies by repeatedly sampling the medium on sequential days. Medium volumes greater than 10 μl are unnecessary and, because an excess of fluorophore releasing reagent with respect to sample is desired, actually may lead to inefficient counting of the fluorophore as the ratio of fluorophore releasing reagent to sample decreases. […]
Determine the fluorescence of each well of the assay vessel in a time-resolved fluorescence fluorimeter (e.g., a Wallac Victor, with excitation at 340 nm and emission at […]) over a […] time period after an initial delay of 400 μseconds.
Primary human osteoclast precursors were seeded onto europium chelate-labeled collagen covalently bound to a maleic anhydride-derivatized polystyrene plate (Pierce Reacti-Bind™) at 10,000 cells/well and cultured in differentiation medium containing (1) no calcitonin, (2) calcitonin added only at day 5, or (3) calcitonin added on both days 0 and 5. Ten μl samples of culture media were counted after a total of 6 days. […]

Assay [2] concerns primary human osteoclast precursors. Briefly: TRAP stain (multinucleated TRAP-positive cells/well). Type of assay: cell-based. As for the experimental part:
Primary human osteoclast precursors were seeded onto europium chelate-labeled collagen covalently bound to a maleic anhydride-derivatized polystyrene plate at 10,000 cells/well and cultured in medium containing soluble RANK ligand with and without interferon γ. After 9 days, cell culture media were assayed for fluorescent collagen peptides as described in Example 1. Cells in the plate were subsequently stained for TRAP (Sigma # 386-A).
In another experiment, osteoclast precursors were cultured in differentiation medium with and without different concentrations of alendronate. After 7 days the media were renewed and, after an additional 3 days, the cell culture media were sampled as described in Example 1. Cells in the plate were subsequently stained for TRAP (Sigma # 386-A).

Another assay relates to osteoclast precursors. Briefly: Osteoclast-mediated degradation of covalently bound FITC-labeled collagen (DQ collagen). The class given is cell-based, human. As to conditions: 1 ng/ml; days 5, 7 and 9 of culture; FITC-labeled bovine type I collagen. As for the experimental part:
FITC-labeled bovine type I collagen (DQ collagen, Molecular Probes, Inc.) was covalently bound to the surface of a maleic anhydride-derivatized 96-well tissue culture plate. Osteoclast precursors were cultured, with and without differentiation, in the plate as described in Example 2. Interferon γ (1 ng/ml) was added to some wells. At days 5, 7 and 9 of culture, 10 μl samples of each well were collected and added to 200 μl phosphate-buffered saline and counted in a fluorimeter (485/535 nm).

Setting [3] is: 9 days of culture, medium with soluble RANK ligand.

No end group written: not given here.

On to “calcitonin (CGNLSTCMLGTYTQDFNKFHTFPQTAIGVGAP; ends and bridges not checked; cysteine pairing not given here; UniProt P01258 85-116, looked up)”, for which the “effect on resorptive activity of the osteoclasts” value in assay [1] (calcitonin added on days 0 and 5 (prior exposure on day 0)) is “little effect”. Also, in assay [1] (calcitonin for 24 hours (added day 5 of culture), counted after 6 days), the “inhibition of bone matrix degradation” value was 88%.

With “interferon γ [cytokine added to osteoclast precursor cultures]”, the “IC50, percent inhibition relative to controls, OsteoLyse assay” value in assay [1] (setting [3]) is on record as “approximately 0.1 ng/ml”. Besides, the “IC50, percent inhibition relative to controls, TRAP assay” value in assay [2] (setting [3]) is “approximately 0.1 ng/ml”. Further, the “inhibition of osteoclast-mediated collagen degradation” value in the assay with osteoclast precursors is “completely inhibited”.

The term IC50 denotes the concentration at which inhibition is half-maximal. `NCCCC(O)(P(=O)(O)O)P(=O)(O)O` [alendronate]: the IC50 in assay [1] (Osteoclast, OsteoLyse assay, primary human osteoclasts, read-out: IC50, in vitro inhibition of bone resorption) is ~2000 nM. Moreover, in assay [2] (different concentrations, medium renewed after 7 days, 3 additional days), the “inhibition of differentiation of osteoclast precursors (multinucleated TRAP-positive osteoclasts)” value is on record as “did not inhibit”.
